Laboratory results: patent US8093288B2, “Genipin derivatives and uses thereof” (Beth Israel Deaconess Medical Center, priority 2003, dated 2012)

How the values were obtained:
ob/ob islets = assay: Glucose-stimulated insulin secretion in islets from ob/ob mice; assay type: cell-based; conditions: 5 μM genipin acutely added, FIG. 12C
Procedure: (§1) Pancreatic islets were isolated from WT (FIG. 12A) or UCP2 KO mice (FIG. 12B) and subjected to chronic incubations at low (5.5 mM) and high glucose (25 mM). In a separate experiment, islets were isolated from ob/ob mice (FIG. 12C). Islets were incubated for a total of 72 hours and washed, and then insulin-secretion studies were performed using three different concentrations of glucose (5.5, 12.5, and 25 mM) with or without 5 μM genipin. Results are means±SEM of four independent experiments (FIGS. 12A and 12B) or eight to twenty repeats of one representative experiment (FIG. 12C). WT islets that were chronically incubated at low glucose released increasing amounts of insulin in response to increasing concentrations of glucose (FIG. 12A, left panel). Following chronic hyperglycemia, islets increased basal insulin release, but were completely unresponsive to glucose stimulation (FIG. 12A, middle panel). […] To assess the role of genipin in hyperglycemia-induced loss of glucose responsiveness, genipin was acutely added into islets during the insulin-release phase of the study. […] Insulin secretion in islets from ob/ob mice and ob/ob mice lacking UCP2 with or without genipin was also studied. It has been reported that in ob/ob islets, UCP2 expression levels are increased compared to WT islets. […]

[1] = system: islets from ob/ob mice lacking UCP2; assay: Glucose-stimulated insulin secretion in islets from ob/ob mice lacking UCP2; assay type: cell-based; conditions: 5 μM genipin, FIG. 12C
Procedure: as §1

[2] = system: high fat diet-fed wildtype mice; assay: Blood glucose and insulin after genipin injection in high fat diet-fed wildtype mice; assay type: in vivo; conditions: high fat diet 24 weeks, 20 hours fasting, 300 μg genipin injected, thirty minutes after injection
Procedure: Wildtype and UCP2 knockout mice were placed on a high fat diet obtained from Research Diets Inc., New Brunswick, N.J. (cat. no. D12331, HFD). The fat source was coconut oil and comprised 58% of the total calories. The mice remained on the high fat diet for 24 weeks. After the 24 weeks, both the wildtype and the UCP2 knockout mice were obese (about 50-60 g). After 20 hours of fasting, the blood glucose and insulin levels of the mice were measured, then the mice were injected with 300 μg of genipin. Thirty minutes after injection the blood glucose and insulin levels of the mice were measured again. Blood glucose levels were assessed using a glucometer (One touch, Lifescan, Milpitas, Calif.). Serum insulin concentrations were assessed using mouse insulin as a standard (Rat Insulin ELISA Kit. cat. #INSKR020 Crystal Chem. Inc., Chicago, Ill.). […] A comparison of the effect of genipin on the blood glucose levels and insulin levels in wildtype and UCP2 knockout mice can be seen in FIGS. 7 and 10, respectively.

UCP2 KO islets = assay: Glucose-stimulated insulin secretion in UCP2 KO islets after chronic hyperglycemia; assay type: cell-based, mice; conditions: UCP2 KO islets after 72 hours at 25 mM glucose; 5 μM genipin; FIG. 12B
Procedure: Pancreatic islets were isolated from WT (FIG. 12A) or UCP2 KO mice (FIG. 12B) and subjected to chronic incubations at low (5.5 mM) and high glucose (25 mM). In a separate experiment, islets were isolated from ob/ob mice (FIG. 12C). Islets were incubated for a total of 72 hours and washed, and then insulin-secretion studies were performed using three different concentrations of glucose (5.5, 12.5, and 25 mM) with or without 5 μM genipin. Results are means±SEM of four independent experiments (FIGS. 12A and 12B) or eight to twenty repeats of one representative experiment (FIG. 12C). WT islets that were chronically incubated at low glucose released increasing amounts of insulin in response to increasing concentrations of glucose (FIG. 12A, left panel). Following chronic hyperglycemia, islets increased basal insulin release, but were completely unresponsive to glucose stimulation (FIG. 12A, middle panel). […] To assess the role of genipin in hyperglycemia-induced loss of glucose responsiveness, genipin was acutely added into islets during the insulin-release phase of the study. […] To see whether this effect of genipin is mediated by UCP2, islets were isolated from UCP2 KO mice and then incubated in chronic hyperglycemia. […]

COC(=O)C1=CO[C@@H](O)[C@@H]2C(CO)=CC[C@H]12 [genipin]
glucose sensing (glucose-stimulated insulin secretion) (ob/ob islets): restored glucose sensing
glucose sensing (glucose-stimulated insulin secretion) [1]: did not improve glucose sensing above the level seen in islets lacking UCP2 alone
blood glucose levels ([2]; FIG. 5): significantly lowered blood glucose
blood insulin levels ([2]; FIG. 8): dramatically increase the blood insulin levels
glucose-stimulated insulin secretion (GSIS) (UCP2 KO islets): no additional beneficial effect on GSIS
